The text below walks through data of US9783532B2, “Molecules having certain pesticidal utilities, and intermediates, compositions, and processes related thereto” (Dow AgroSciences LLC, priority 2013, dated 2017).

Common to all, as to format: in vivo
The test system of series [1] is Yellow Fever Mosquito "YFM" (Aedes aegypti). The note with it: for YFM (Biological Results, Insect species): Table ABC (FB), activity rating class; for YFM % Control (or Mortality) rating: about 1 day-old larvae, 96-well plate, room temperature, 3 days. Here is the method:
Certain molecules disclosed in this document were tested against YFM using procedures described in the following paragraph. In the reporting of the results, the “YFM Rating Table” was used (See Table Section).
Master plates containing 400 μg of a molecule dissolved in 100 μL of dimethyl sulfoxide (DMSO) (equivalent to a 4000 ppm solution) are used. A master plate of assembled molecules contains 15 μL per well. To this plate, 135 μL of a 90:10 wateracetone mixture is added to each well. A robot (Biomek® NXP Laboratory Automation Workstation) is programmed to dispense 15 μL aspirations from the master plate into an empty 96-well shallow plate (“daughter” plate). There are 6 reps (“daughter” plates) created per master. The created daughter plates are then immediately infested with YFM larvae.
The day before plates are to be treated, mosquito eggs are placed in Millipore water containing liver powder to begin hatching (4 g. into 400 mL). After the daughter plates are created using the robot, they are infested with 220 μL of the liver powder/larval mosquito mixture (about 1 day-old larvae). After plates are infested with mosquito larvae, a non-evaporative lid is used to cover the plate to reduce drying. Plates are held at room temperature for 3 days prior to grading. After 3 days, each well is observed and scored based on mortality.

For series [2], the system named is Beet Armyworm (Spodoptera exigua) ("BAW"). Description: Bioassay on beet armyworm (BAW), 128-well diet tray assay. As to conditions: for pest or weed control at 50 µg/cm2: Table ABC (FB), activity rating class, read-out: BAW (Biological Results, Insect species); for mortality at 50 µg/cm2: 168 h, 50 μg/cm^2 on artificial diet, second instar BAW larvae, 25° C., five to seven days, average of eight wells, read-out: BAW % Control (or Mortality) rating. The essentials: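 Percent mortality, averaged across eight wells, was read after five to seven days at 25° C. under 14:10 light-dark. Each well held one to five second-instar larvae on artificial diet that had been treated with 50 μg/cm^2 compound in 90:10 acetone-water and dried.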

Series [3] relates to Cabbage Looper (Trichoplusia ni) ("CL"). The experiment in a line: Bioassay on cabbage looper (CL), 128-well diet tray assay. As to conditions: for pest or weed control at 50 µg/cm2: Table ABC (FB), activity rating class, read-out: CL (Biological Results, Insect species); for mortality at 50 µg/cm2: 168 h, 50 μg/cm^2 on artificial diet, second instar CL larvae, 25° C., five to seven days, average of eight wells, read-out: CL % Control (or Mortality) rating. In short, it runs like this: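 Percent mortality, averaged across eight replicate wells, was read after five to seven days at 25 °C under a 14:10 photoperiod. Each well held one to five second-instar T. ni on diet carrying a dried 50 μg/cm^2 dose applied in acetone-water 90:10.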

On to `CS/C(=N\C(=O)NCCc1ccc(-c2ncn(-c3ccc(OC(F)(F)F)cc3)n2)cc1)Nc1cc(C)ccc1C(C)C` [FB65, (Z)-methyl N-(2-isopropyl-5-methylphenyl)-N′-((4-(1-(4-(trifluoromethoxy)phenyl)-1H-1,2,4-triazol-3-yl)phenethyl)carbamoyl)carbamimidothioate], for which the “YFM (Biological Results, Insect species)” value in series [1] is “A (80-100)”. For the same compound, the pest or weed control at 50 µg/cm2 in series [2] and in series [3] was 50 to 100% each time.

Regarding `COc1ccc(C(C)C)c(N2C(=O)CS/C2=N\C(=O)NCCc2ccc(-c3ncn(-c4ccc(C(F)(F)F)cc4)n3)cc2)c1` [P53, (Z)-1-(3-(2-isopropyl-5-methoxyphenyl)-4-oxothiazolidin-2-ylidene)-3-(4-(4-(1-(4-trifluoromethyl)phenyl)-1H-1,2,4-triazol-3-yl)phenethyl)urea], the “YFM % Control (or Mortality) rating” value in series [1] is listed as “A (80-100)”. The mortality at 50 µg/cm2 in series [2] and in series [3] was 50 to 100% throughout.

As for `CC(C)c1ccccc1N1C(=O)CS/C1=N\C(=O)NCC(C)c1ccc(-c2ncn(-c3ccc(OC(F)(F)F)cc3)n2)cc1` (stereo not drawn) [P205, (Z)-1-(3-(2-isopropylphenyl)-4-oxothiazolidin-2-ylidene)-3-(2-(4-(1-(4-(trifluoromethoxy)phenyl)-1H-1,2,4-triazol-3-yl)phenyl)propyl)urea], in series [1], the “YFM % Control (or Mortality) rating” value is “A (80-100)”. Moreover, the mortality at 50 µg/cm2 in series [2] and in series [3] was 50 to 100% each time.

Take `COc1ccc(N2C(=O)CS/C2=N\C(=O)NC(C)Cc2ccc(-c3ncn(-c4ccc(OC(F)(F)F)cc4)n3)cc2)c(C)c1` (stereo not drawn) [P45, (Z)-1-(3-(4-methoxy-2-methylphenyl)-4-oxothiazolidin-2-ylidene)-3-(1-(4-(1-(4-(trifluoromethoxy)phenyl)-1H-1,2,4-triazol-3-yl)phenyl)propan-2-yl)urea]: in series [1], the “YFM % Control (or Mortality) rating” value is reported as “A (80-100)”. The mortality at 50 µg/cm2 in series [2] and in series [3] was 50 to 100% each time.

As to `CCCc1ccc(C)cc1N1C(=O)CS/C1=N\C(=O)NCCc1ccc(-c2ncn(-c3ccc(OC(F)(F)F)cc3)n2)cc1` [P29, (Z)-1-(3-(5-methyl-2-propylphenyl)-4-oxothiazolidin-2-ylidene)-3-(4-(1-(4-(trifluoromethoxy)phenyl)-1H-1,2,4-triazol-3-yl)phenethyl)urea], the “YFM % Control (or Mortality) rating” value in series [1] was “A (80-100)”. The mortality at 50 µg/cm2 in series [2] and in series [3] was 50 to 100% throughout.

With `CC(C)c1ccc(Cl)cc1N1C(=O)CS/C1=N\C(=O)NCC(C)c1ccc(-c2ncn(-c3ccc(OC(F)(F)F)cc3)n2)cc1` (stereo not drawn) [FB49, (Z)-1-(3-(5-chloro-2-isopropylphenyl)-4-oxothiazolidin-2-ylidene)-3-(2-(4-(1-(4-(trifluoromethoxy)phenyl)-1H-1,2,4-triazol-2,4-triazol-3-yl)phenyl)propyl)urea], in series [1], the “YFM (Biological Results, Insect species)” value is recorded as “A (80-100)”. For the same compound, the pest or weed control at 50 µg/cm2 in series [2] and in series [3] was 50 to 100% in each case.

Regarding `Cc1ccc(N2C(=O)CS/C2=N\C(=O)NCCCCc2ccc(-c3ncn(-c4ccc(OC(F)(F)F)cc4)n3)cc2)c(C)c1` [FB17, (Z)-1-(3-(2,4-dimethylphenyl)-4-oxothiazolidin-2-ylidene)-3-(4-(4-(1-(4-(trifluoromethoxy)phenyl)-1H-1,2,4-triazol-3-yl)phenyl)butyl)urea], the “YFM (Biological Results, Insect species)” value in series [1] is reported as “A (80-100)”. Besides, the pest or weed control at 50 µg/cm2 in series [2] and in series [3] was 50 to 100% in each case.

For `CC(Cc1ccc(-c2ncn(-c3ccc(OC(F)(F)F)cc3)n2)cc1)NC(=O)/N=C1\SCC(=O)N1c1cc(Cl)ccc1C(C)C` (stereo not drawn) [FB42], the “YFM (Biological Results, Insect species)” value in series [1] was “A (80-100)”. The pest or weed control at 50 µg/cm2 in series [2] and in series [3] was 50 to 100% throughout.

As to `Cc1ccc(C(C)C)c(N2C(=O)CS/C2=N\C(=O)NCCC#Cc2ccc(-c3ncn(-c4ccc(OC(F)(F)F)cc4)n3)cc2)c1` [P160, (Z)-1-(3-(2-isopropyl-5-methylphenyl)-4-oxothiazolidin-2-ylidene)-3-(4-(4-(1-(4-(trifluoromethoxy)phenyl)-1H-1,2,4-triazol-3-yl)phenyl)but-3-yn-1-yl)urea], in series [1], the “YFM % Control (or Mortality) rating” value is given as “B (More than 0-Less than 80)”. The mortality at 50 µg/cm2 in series [2] and in series [3] was 50 to 100% each time.

For `Cc1ccc(C(C)C)c(-n2c(C)cs/c2=N\C(=O)NCCc2ccc(-c3ncn(-c4ccc(OC(F)(F)F)cc4)n3)cc2)c1` [P65, (Z)-1-(3-(2-isopropyl-5-methylphenyl)-4-methylthiazol-2(3H)-ylidene)-3-(4-(1-(4-(trifluoromethoxy)phenyl)-1H-1,2,4-triazol-3-yl)phenethyl)urea], in series [1], the “YFM % Control (or Mortality) rating” value is on record as “A (80-100)”. The mortality at 50 µg/cm2 in series [2] and in series [3] was 50 to 100% in each case.

Take `CCc1cc(C)ccc1N1/C(=N/C(=O)NCCc2ccc(-c3ncn(-c4ccc(OC(F)(F)F)cc4)n3)cc2)SCC1C` (stereo not drawn) [FB56, (Z)-1-(3-(2-ethyl-4-methylphenyl)-4-methylthiazolidin-2-ylidene)-3-(4-(1-(4-(trifluoromethoxy)phenyl)-1H-1,2,4-triazol-3-yl)phenethyl)urea]: the “YFM (Biological Results, Insect species)” value in series [1] was “A (80-100)”. Besides, the pest or weed control at 50 µg/cm2 in series [2] and in series [3] was 50 to 100% each time.

As for `CCCc1ccc(C)cc1N1C(=O)CS/C1=N\C(=O)NCCCCc1ccc(-c2ncn(-c3ccc(OC(F)(F)F)cc3)n2)cc1` [P151, P842, (Z)-1-(3-(5-methyl-2-propylphenyl)-4-oxothiazolidin-2-ylidene)-3-(4-(4-(1-(4-(trifluoromethoxy)phenyl)-1H-1,2,4-triazol-3-yl)phenyl)butyl)urea], the “YFM % Control (or Mortality) rating” value in series [1] is recorded as “A (80-100)”. Further, the mortality at 50 µg/cm2 in series [2] and in series [3] was 50 to 100% each time.

Consider `Cc1cccc(C)c1N1C(=O)CS/C1=N\C(=O)NCCCCc1ccc(-c2ncn(-c3ccc(OC(F)(F)F)cc3)n2)cc1` [P152, P1481, (Z)-1-(3-(2,6-dimethylphenyl)-4-oxothiazolidin-2-ylidene)-3-(4-(4-(1-(4-(trifluoromethoxy)phenyl)-1H-1,2,4-triazol-3-yl)phenyl)butyl)urea], for which the “YFM % Control (or Mortality) rating” value in series [1] was “A (80-100)”. In addition, the mortality at 50 µg/cm2 in series [2] was 0%; in series [3] it was 50 to 100%.

Regarding `CC(Cc1ccc(-c2ncn(-c3ccc(OC(F)(F)F)cc3)n2)cc1)NC(=O)/N=C1\SCC(=O)N1c1ccc(F)cc1C(C)C` (stereo not drawn) [P33, (Z)-1-(3-(4-fluoro-2-isopropylphenyl)-4-oxothiazolidin-2-ylidene)-3-(1-(4-(1-(4-(trifluoromethoxy)phenyl)-1H-1,2,4-triazol-3-yl)phenyl)propan-2-yl)urea], in series [1], the “YFM % Control (or Mortality) rating” value is “A (80-100)”. Moreover, the mortality at 50 µg/cm2 in series [2] and in series [3] was 50 to 100% each time.

For the compound `Cc1ccc(C(C)C)c(N2C(=O)CS/C2=N\C(=O)N(CCc2ccc(-c3ncn(-c4ccc(OC(F)(F)F)cc4)n3)cc2)CC2CC2)c1` [FB62, (Z)-1-(cyclopropylmethyl)-3-(3-(2-isopropyl-5-methylphenyl)-4-oxothiazolidin-2-ylidene)-1-(4-(1-(4-(trifluoromethoxy)phenyl)-1H-1,2,4-triazol-3-yl)phenethyl)urea], in series [1], the “YFM (Biological Results, Insect species)” value is “A (80-100)”. Besides, the pest or weed control at 50 µg/cm2 in series [2] and in series [3] was 50 to 100% in each case.

In the case of `Cc1cccc(N2C(=O)CS/C2=N\C(=O)NCCc2ccc(-c3ncn(-c4ccc(OC(F)(F)F)cc4)n3)cc2)c1C(C)C` [P27, (Z)-1-(3-(2-isopropyl-3-methylphenyl)-4-oxothiazolidin-2-ylidene)-3-(4-(1-(4-(trifluoromethoxy)phenyl)-1H-1,2,4-triazol-3-yl)phenethyl)urea], in series [1], the “YFM % Control (or Mortality) rating” value is “A (80-100)”. The mortality at 50 µg/cm2 in series [2] and in series [3] was 50 to 100% each time.

With `Cc1ccc(C(C)C)c(N2C(=O)CS/C2=N\C(=O)NCCCc2ccc(-c3ncn(-c4ccc(OC(F)(F)F)cc4)n3)cc2)c1` [F20, (Z)-1-(3-(2-isopropyl-5-methylphenyl)-4-oxothiazolidin-2-ylidene)-3-(3-(4-(1-(4-(trifluoromethoxy)phenyl)-1H-1,2,4-triazol-3-yl)phenyl)propyl)urea], the “YFM % Control (or Mortality) rating” value in series [1] is recorded as “A (80-100)”. Moreover, the mortality at 50 µg/cm2 in series [2] and in series [3] was 50 to 100% each time.

As a reminder, the mortality is the share of the test organisms that died.
